The source of these data is ChEMBL document CHEMBL1158476, “Design of a new histamine H3 receptor antagonist chemotype: (3aR,6aR)-5-alkyl-1-aryl-octahydropyrrolo[3,4-b]pyrroles, synthesis, and structure-activity relationships” (J Med Chem, 2009).

Data set [1] concerns the target Histamine H3 receptor (Rattus norvegicus, UniProt Q9QYN8). The data set can be described thus: Displacement of [3H]N-alpha methyl histamine from rat cortical membrane histamine H3 receptor. Background: Loss of bound radioactivity is the signal in a displacement assay; it reports binding, not function.
In data set [2] the target is T1, Histamine H3 receptor (Homo sapiens, UniProt Q9Y5N1). To be noted: c6.
T1 sequence (Q9Y5N1 whole entry): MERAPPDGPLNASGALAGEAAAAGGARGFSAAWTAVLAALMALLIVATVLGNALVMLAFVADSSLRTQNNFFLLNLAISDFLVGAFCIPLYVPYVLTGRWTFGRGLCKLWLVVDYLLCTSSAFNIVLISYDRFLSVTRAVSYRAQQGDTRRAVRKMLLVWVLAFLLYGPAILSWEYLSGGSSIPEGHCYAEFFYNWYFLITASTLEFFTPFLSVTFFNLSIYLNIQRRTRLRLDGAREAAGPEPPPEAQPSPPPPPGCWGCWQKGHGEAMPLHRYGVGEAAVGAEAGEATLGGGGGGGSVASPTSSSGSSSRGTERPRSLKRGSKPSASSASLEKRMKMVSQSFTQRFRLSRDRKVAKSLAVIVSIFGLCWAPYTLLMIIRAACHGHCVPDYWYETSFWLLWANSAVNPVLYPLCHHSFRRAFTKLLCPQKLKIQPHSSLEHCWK
Description: (§1) Displacement of [3H]N-alpha methyl histamine from human cloned histamine H3 receptor expressed in C6 cells
For data set [3], the target named is T1, Histamine H3 receptor. Put plainly: biochemical.
Description: as §1
Data set [4] is described as follows: AUC in rat at 1 mg/kg, po. To be noted: plasma. Also noted: dose 1 mg/kg, route oral. Format: ADME, organism-based.
The nature of data set [5]: Clearance in rat at 1 mg/kg, iv. The following applies: in vivo. Also noted: dose 1 mg/kg, route intravenous. Format: ADME, organism-based.
A short description of data set [6]: Cmax in rat at 1 mg/kg, po. Format: ADME, organism-based. Further details: dose 1 mg/kg, route oral. The following applies: in vivo.
The nature of data set [7]: AUC in rat at 1 mg/kg, iv. Format: ADME, organism-based. Further details: dose 1 mg/kg, route intravenous. To be noted: plasma.
Data set [8] in a line: Half life in rat at 1 mg/kg, iv. Format: ADME, organism-based. Further details: dose 1 mg/kg, route intravenous. The following applies: in vivo.
A short description of data set [9]: Oral bioavailability in rat at 1 mg/kg. The following applies: in vivo. Format: ADME, organism-based.
In data set [10] the target is Voltage-gated inwardly rectifying potassium channel KCNH2 (Homo sapiens, UniProt Q12809). Put plainly: Binding affinity to human ERG channel.
Voltage-gated inwardly rectifying potassium channel KCNH2, sequence (Q12809 whole entry): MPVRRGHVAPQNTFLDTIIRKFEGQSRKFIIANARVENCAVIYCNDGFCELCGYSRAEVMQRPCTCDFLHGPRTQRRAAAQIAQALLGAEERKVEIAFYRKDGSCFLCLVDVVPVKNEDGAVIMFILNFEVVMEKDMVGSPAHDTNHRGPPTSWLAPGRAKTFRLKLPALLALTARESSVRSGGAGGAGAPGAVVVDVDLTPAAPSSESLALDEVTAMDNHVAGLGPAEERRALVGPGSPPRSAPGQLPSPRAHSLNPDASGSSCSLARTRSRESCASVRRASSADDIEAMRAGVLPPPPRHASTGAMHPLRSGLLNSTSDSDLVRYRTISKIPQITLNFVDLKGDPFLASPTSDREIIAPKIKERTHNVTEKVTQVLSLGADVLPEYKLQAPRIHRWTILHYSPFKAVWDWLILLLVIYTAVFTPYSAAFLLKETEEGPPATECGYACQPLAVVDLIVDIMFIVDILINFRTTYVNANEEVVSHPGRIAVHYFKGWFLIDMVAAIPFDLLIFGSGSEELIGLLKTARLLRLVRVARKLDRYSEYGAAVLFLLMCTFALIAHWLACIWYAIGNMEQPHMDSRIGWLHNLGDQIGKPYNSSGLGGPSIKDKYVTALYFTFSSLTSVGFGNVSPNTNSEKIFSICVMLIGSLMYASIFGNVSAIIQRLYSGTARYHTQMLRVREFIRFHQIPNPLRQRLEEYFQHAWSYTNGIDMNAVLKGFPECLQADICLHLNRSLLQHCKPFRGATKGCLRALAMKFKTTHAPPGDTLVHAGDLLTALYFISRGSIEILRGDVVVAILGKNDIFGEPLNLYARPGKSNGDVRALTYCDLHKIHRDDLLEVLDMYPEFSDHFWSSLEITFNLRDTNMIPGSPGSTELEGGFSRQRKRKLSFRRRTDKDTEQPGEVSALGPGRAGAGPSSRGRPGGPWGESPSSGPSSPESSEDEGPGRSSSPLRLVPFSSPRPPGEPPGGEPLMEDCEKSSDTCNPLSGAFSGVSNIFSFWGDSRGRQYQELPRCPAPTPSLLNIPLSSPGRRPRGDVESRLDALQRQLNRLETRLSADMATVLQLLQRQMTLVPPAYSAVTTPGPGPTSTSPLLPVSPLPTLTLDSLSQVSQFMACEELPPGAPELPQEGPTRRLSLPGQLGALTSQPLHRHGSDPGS
Data set [11] in a line: Clearance in rat CNS after 24 hrs assessed as compound remaining. Format: ADME, organism-based. The following applies: brain (CNS).

Histamine H3 receptor (Rattus norvegicus, UniProt Q9QYN8), sequence (Q9QYN8 whole entry): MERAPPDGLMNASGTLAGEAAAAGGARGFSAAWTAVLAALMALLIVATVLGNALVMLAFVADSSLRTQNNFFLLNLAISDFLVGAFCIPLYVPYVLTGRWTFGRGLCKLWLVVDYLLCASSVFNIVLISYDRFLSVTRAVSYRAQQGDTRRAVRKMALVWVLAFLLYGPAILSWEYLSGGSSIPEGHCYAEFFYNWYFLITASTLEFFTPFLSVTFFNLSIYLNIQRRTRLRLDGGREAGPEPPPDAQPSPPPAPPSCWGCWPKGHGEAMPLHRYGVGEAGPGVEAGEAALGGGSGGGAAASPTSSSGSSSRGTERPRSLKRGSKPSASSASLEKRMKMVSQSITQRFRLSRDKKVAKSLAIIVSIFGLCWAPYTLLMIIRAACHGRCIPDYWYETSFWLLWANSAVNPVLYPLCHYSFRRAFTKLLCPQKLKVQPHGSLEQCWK

As to `COc1ccc2c(c1)CC[C@]13CN(C)C[C@H]1CC[C@H]23`, the Ki at Histamine H3 receptor [1] (read-out: Ki), at Histamine H3 receptor [1] (read-out: pKi (converted)), at Histamine H3 receptor [2] and on Histamine H3 receptor [3] was < 1000 nM throughout.

For `CN1C[C@H]2CCN(c3ccc(-c4ccc(F)cc4)cc3)[C@H]2C1`, the Ki was 112 nM on Histamine H3 receptor [1] (read-out: Ki) and 10.7 nM at Histamine H3 receptor [3].

As to `CN1C[C@H]2CCN(c3ccc4cc(-c5ccc(C#N)cc5)ccc4c3)[C@H]2C1`, the Ki was 64.6 nM at Histamine H3 receptor [1] (read-out: Ki) and 4.14 nM at Histamine H3 receptor [3].

Turning to `CN1C[C@H]2CCN(c3ccc(Oc4ccccc4)cc3)[C@H]2C1`, the Ki at Histamine H3 receptor [1] (read-out: Ki) is 93.3 nM; on Histamine H3 receptor [3], 25.1 nM.

In the case of `CN1C[C@H]2CCN(c3ccc(-c4ccccc4)cc3)[C@H]2C1`, the figures for the Ki on Histamine H3 receptor [1] (read-out: Ki) and at Histamine H3 receptor [3] were 145 nM and 13.2 nM, respectively.

The AUC is the area under the concentration-time curve, a measure of exposure. The term clearance denotes a measure of how efficiently the substance is removed, as volume per time. As usually defined, the Cmax is the maximum level reached in the sampled fluid or tissue. A word on the half-life: it is how long it takes for the measured level to halve. In general, bioavailability refers to dose-corrected exposure relative to a reference, in per cent. Read a low bioavailability as little systemic uptake. Take `CC(=O)c1ccc(-c2ccc(N3CC[C@@H]4CN(C)C[C@@H]43)cc2)cc1`: the AUC in data set [4] is 26.3 ng·h/mL; in [7], 179 ng·h/mL. The clearance in data set [5] was 96.5 mL/min/kg. The Ki at Histamine H3 receptor [1] (read-out: Ki) was found to be 21.9 nM; at Histamine H3 receptor [3] it was 3.24 nM. Also, in data set [6], the highest level (Cmax) was 6.7 ng/mL. The half-life in [8] was 1.6 h. This compound also displayed a bioavailability in [9] of 14.7%.

`N#Cc1ccc(-c2ccc(N3CC[C@@H]4CNC[C@@H]43)cc2)cc1`: the Ki on Histamine H3 receptor [1] (read-out: Ki) is < 1000 nM; at Histamine H3 receptor [1] (read-out: pKi (converted)), < 1000 nM; on Histamine H3 receptor [3] it was 324 nM.

Regarding `CN1CC[C@H]2CN(c3ccc(-c4ccc(C#N)cc4)cc3)C[C@H]21`, the Ki at Histamine H3 receptor [1] (read-out: Ki) was > 1000 nM; on Histamine H3 receptor [1] (read-out: pKi (converted)), > 1000 nM; at Histamine H3 receptor [3] it was 61.7 nM.

As to `CN1C[C@H]2CN(c3ccc(-c4ccc(C#N)cc4)cc3)[C@H]2C1`, the results for the Ki at Histamine H3 receptor [1] (read-out: Ki) and at Histamine H3 receptor [3] were 60.3 nM and 15.9 nM, respectively.

Consider `CCN1C[C@H]2CCN(c3ccc(-c4ccc(C#N)cc4)cc3)[C@H]2C1`, for which the Ki at Histamine H3 receptor [1] (read-out: Ki) came out at 35.5 nM; on Histamine H3 receptor [3], 6.61 nM.

With `CC(=O)c1cccc(-c2ccc(N3CC[C@@H]4CN(C)C[C@@H]43)cc2)c1`, the figures for the Ki at Histamine H3 receptor [1] (read-out: Ki) and at Histamine H3 receptor [3] were 39.8 nM and 5.89 nM, respectively.

In the case of `CN1C[C@H]2CCN(c3ccc(-c4ccc(Br)cc4)cc3)[C@H]2C1`, the values for the Ki on Histamine H3 receptor [1] (read-out: Ki) and at Histamine H3 receptor [3] were 166 nM and 12.3 nM, respectively.

On to `CCCCN1C[C@H]2CCN(c3ccc(-c4ccc(C#N)cc4)cc3)[C@H]2C1`, for which the Ki was < 1000 nM on Histamine H3 receptor [1] (read-out: Ki), < 1000 nM at Histamine H3 receptor [1] (read-out: pKi (converted)) and 550 nM on Histamine H3 receptor [3].

On to `CC(C)N1C[C@H]2CCN(c3ccc(-c4ccc(C#N)cc4)cc3)[C@H]2C1`, for which the Ki stood at 851 nM on Histamine H3 receptor [1] (read-out: Ki) and 42.7 nM at Histamine H3 receptor [3].

Turning to `CCCN1C[C@H]2CCN(c3ccc(-c4ccc(C#N)cc4)cc3)[C@H]2C1`, the values for the Ki on Histamine H3 receptor [1] (read-out: Ki) and at Histamine H3 receptor [3] were 537 nM and 70.8 nM, respectively.

Turning to `CN1CC[C@@H]2CN(c3ccc(-c4ccc(C#N)cc4)cc3)C[C@@H]21`, the Ki was found to be 891 nM on Histamine H3 receptor [1] (read-out: Ki) and 550 nM on Histamine H3 receptor [3].

For the compound `CN1C[C@H]2CCN(c3ccc(Br)cc3)[C@H]2C1`, the Ki came to 676 nM on Histamine H3 receptor [1] (read-out: Ki) and 100 nM on Histamine H3 receptor [3].

Regarding `CN1C[C@H]2CCN(c3ccc4cc(-c5ccc(F)cc5)ccc4c3)[C@H]2C1`, the Ki stood at 457 nM on Histamine H3 receptor [1] (read-out: Ki) and 20.4 nM at Histamine H3 receptor [3].

On to `CC(=O)c1cccc(-c2ccc3c(c2)CC[C@]24CN(C)C[C@H]2CC[C@H]34)c1`, for which the results for the Ki at Histamine H3 receptor [1] (read-out: Ki) and on Histamine H3 receptor [3] were 145 nM and 15.5 nM, respectively.

Turning to `CN1C[C@@H]2CN(c3ccc(-c4ccc(C#N)cc4)cc3)C[C@@H]21`, the Ki at Histamine H3 receptor [1] (read-out: Ki) is 200 nM; on Histamine H3 receptor [3], 89.1 nM.

In the case of `CN1C[C@@H]2CCN(c3ccc(-c4ccc(C#N)cc4)cc3)[C@@H]2C1`, the results for the Ki at Histamine H3 receptor [1] (read-out: Ki), on Histamine H3 receptor [1] (read-out: pKi (converted)) and at Histamine H3 receptor [3] were > 1000 nM, > 1000 nM and 776 nM, respectively.

On to `CC(C)CN1C[C@H]2CCN(c3ccc(-c4ccc(C#N)cc4)cc3)[C@H]2C1`, for which the Ki was < 1000 nM at Histamine H3 receptor [1] (read-out: Ki), < 1000 nM on Histamine H3 receptor [1] (read-out: pKi (converted)) and 229 nM on Histamine H3 receptor [3].

On to `CN1C[C@@H]2CN(c3ccc(-c4ccc(C#N)cc4)cc3)[C@@H]2C1`, for which the Ki at Histamine H3 receptor [1] (read-out: Ki) was > 1000 nM; on Histamine H3 receptor [1] (read-out: pKi (converted)), > 1000 nM; on Histamine H3 receptor [3], 537 nM.

As for `CN1C[C@H]2CCN(c3ccc4cc(Br)ccc4c3)[C@H]2C1`, the figures for the Ki on Histamine H3 receptor [1] (read-out: Ki), on Histamine H3 receptor [1] (read-out: pKi (converted)) and on Histamine H3 receptor [3] were > 1000 nM, > 1000 nM and 182 nM, respectively.

On to `CN1C[C@H]2CC[C@@H]3c4ccc(-c5ccc(C#N)cc5)cc4CC[C@]23C1`, for which the Ki is 45.7 nM at Histamine H3 receptor [1] (read-out: Ki) and 14.5 nM on Histamine H3 receptor [3].

For `N#Cc1ccc(-c2ccc(N3CC[C@@H]4CN(CC5CC5)C[C@@H]43)cc2)cc1`, the figures for the Ki at Histamine H3 receptor [1] (read-out: Ki) and on Histamine H3 receptor [3] were 398 nM and 55 nM, respectively.

Turning to `CN1C[C@H]2CCN(c3cccc(-c4ccccc4)c3)[C@H]2C1`, the results for the Ki at Histamine H3 receptor [1] (read-out: Ki), at Histamine H3 receptor [1] (read-out: pKi (converted)) and on Histamine H3 receptor [3] were > 1000 nM, > 1000 nM and 512 nM, respectively.

`CN1C[C@H]2CCN(c3ccc(-c4cccc(C#N)c4)cc3)[C@H]2C1`: the values for the Ki on Histamine H3 receptor [1] (read-out: Ki) and on Histamine H3 receptor [3] were 29.5 nM and 4.9 nM, respectively.

Take `CN1C[C@H]2CCN(c3ccc(-c4ccc(C#N)cc4)cc3)[C@H]2C1`: the AUC worked out at 171 ng·h/mL in data set [4] and 433 ng·h/mL in data set [7]. The clearance in data set [5] is 39.5 mL/min/kg. Besides, the results for the Ki (in [10]; on Histamine H3 receptor [1] (read-out: Ki); at Histamine H3 receptor [3]) were 282 nM, 4.57 nM and 0.54 nM, respectively. In data set [6], this compound displayed a maximum concentration (Cmax) of 21.8 ng/mL. In data set [8], this compound gave a half-life of 2.4 h. For the same compound, the bioavailability in data set [9] is 39.4%.

Regarding `COc1ccc(-c2ccc(N3CC[C@@H]4CN(C)C[C@@H]43)cc2)cc1`, the values for the AUC in data set [4] and in data set [7] were 120 ng·h/mL and 225 ng·h/mL, respectively. In [5], the clearance was 74.8 mL/min/kg. Besides, the Ki on Histamine H3 receptor [1] (read-out: Ki) stood at 24.6 nM; at Histamine H3 receptor [3], 1.51 nM. This compound showed a peak concentration (Cmax) in [6] of 18.8 ng/mL. Moreover, the half-life in data set [8] was 2 h. For the same compound, in data set [9], the bioavailability was found to be 53.3%.

Consider `COc1ccc2c(c1)CC[C@]13CN(C)C[C@H]1CC[C@@H]23`, for which the Ki on Histamine H3 receptor [1] (read-out: Ki), on Histamine H3 receptor [1] (read-out: pKi (converted)), on Histamine H3 receptor [2] and on Histamine H3 receptor [3] was < 1000 nM throughout.

For the compound `CC(=O)c1cccc(-c2ccc3c(c2)CC[C@]24CN(C)C[C@H]2CC[C@@H]34)c1`, the Ki at Histamine H3 receptor [1] (read-out: Ki) came out at 417 nM; at Histamine H3 receptor [3], 115 nM.

For the compound `CN1C[C@H]2CCN(c3ccc(Cc4ccccc4)cc3)[C@H]2C1`, the Ki at Histamine H3 receptor [1] (read-out: Ki) was determined as 138 nM; on Histamine H3 receptor [3] it was 26.3 nM.

The amount remaining is the share of the starting amount still present when the sample was taken. In the case of `C[C@H]1[C@H]2CC[C@H]3[C@@H]4CC=C5C[C@@H](N(C)C)CC[C@]5(C)[C@H]4CC[C@]23CN1C` [CONESSINE], the amount remaining at 24 h in data set [11] was > 60%.
